From ChEMBL document CHEMBL5375954, “Discovery and Evaluation of C6-Substituted Pyrazolopyrimidine-Based Bisphosphonate Inhibitors of the Human Geranylgeranyl Pyrophosphate Synthase and Evaluation of Their Antitumor Efficacy in Multiple Myeloma, Pancreatic Ductal Adenocarcinoma, and Colorectal Cancer” (J Med Chem, 2023)
Active and inactive are the calls of the source. The rule behind the calls is not given here.

Assays:
[1] = Cytotoxicity against Normal human bronchial epithelial cells assessed as inhibition of cell growth at 10 uM incubated for 72 hrs by MTS assay relative to control; assay type: toxicity, cell-based
[2] = Toxicity in NSG mouse xenografted with human MIA PaCa-2 cells assessed as body weight gain at 3 mg/kg, ip administered 3 times a week for 26 days and measured daily; assay type: organism-based; details: in vivo, time 26 day
[3] = Hepatotoxicity in female NSG mouse xenografted with human RPMI-8226 cells assessed as single-cell necrosis at 3 mg/kg, ip administered 3 times a week for 26 days and measured 48 hrs post last dose by H and E staining based assay; assay type: toxicity, organism-based; details: in vivo, 672 h, time 28 day
[4] = Toxicity in NSG mouse xenografted with human MIA PaCa-2 cells assessed as appearance of skin lesions at 3 mg/kg, ip administered 3 times a week for 26 days and measured daily; assay type: organism-based; details: in vivo, time 26 day
[5] = Metabolic stability in Sprague-Dawley rat liver microsomes assessed as compound remaining incubated for 45 mins in absence of NADPH by LC-MS/MS analysis; assay type: ADME, Microsome; details: 0.75 h
[6] = Metabolic stability in CD-1 mouse liver microsomes assessed as compound remaining incubated for 45 mins in absence of NADPH by LC-MS/MS analysis; assay type: ADME, Microsome; details: 0.75 h
[7] = tested on: RPMI-8226; experiment: cells; details: Homo sapiens, RPMI-8226, 72 h
[8] = Hepatotoxicity in female NSG mouse xenografted with human RPMI-8226 cells assessed as prominent nucleoli at 3 mg/kg, ip administered 3 times a week for 26 days and measured 48 hrs post last dose by H and E staining based assay; assay type: toxicity, organism-based; details: in vivo, 672 h, time 28 day
[9] = tested on: MIA PaCa-2; experiment: Induction of apoptosis in human MIA PaCa-2 cells assessed as early apoptotic cells at 1 uM incubated for 72 hrs by APC-Annexin-V/7-AAD staining based flow cytometry (reference value: 1.26%); assay type: functional
[10] = Hepatotoxicity in female NSG mouse xenografted with human RPMI-8226 cells assessed as eosinophilic degeneration at 3 mg/kg, ip administered 3 times a week for 26 days and measured 48 hrs post last dose by H and E staining based assay; assay type: toxicity, organism-based; details: in vivo, 672 h, time 28 day
[11] = tested on: HCT-116; experiment: Induction of apoptosis in human HCT-116 cells assessed as necrotic cells at 1 uM incubated for 72 hrs by APC-Annexin-V/7-AAD staining based flow cytometry (reference value: 2.99%); assay type: functional
[12] = Toxicity in NSG mouse xenografted with human MIA PaCa-2 cells assessed as weight loss at 3 mg/kg, ip administered 3 times a week for 26 days and measured daily; assay type: organism-based; details: in vivo, time 26 day
[13] = Cytotoxicity against human IMR-90 cells assessed as inhibition of cell growth at 10 uM incubated for 72 hrs by MTS assay relative to control; assay type: toxicity, cell-based
[14] = tested on: RPMI-8226; experiment: Antiproliferative activity against human RPMI-8226 cells harboring KRAS G12A mutant at 0.1 to 10000 nM incubated for 72 hrs by MTS assay; assay type: functional, cell-based; details: dose 0.1-10000 nM
[15] = tested on: MIA PaCa-2; experiment: Antitumor activity against human MIA PaCa-2 cells xenografted in NSG mouse assessed as improvement in animal survival rate at 3 mg/kg, ip administered 3 times a week for 26 days and measured 60 days post last dose; assay type: functional, organism-based; details: time 86.0 day
[16] = molecular target: Cytochrome P450 2C9 (Homo sapiens, UniProt P11712); experiment: Inhibition of CYP2C9 (unknown origin); assay type: ADME
[17] = tested on: HCT-116; experiment: Induction of apoptosis in human HCT-116 cells assessed as necrotic cells at 1 uM incubated for 72 hrs in presence of geranylgeraniol by APC-Annexin-V/7-AAD staining based flow cytometry (reference value: 2.99%); assay type: functional
[18] = tested on: HCT-116; experiment: Induction of apoptosis in human HCT-116 cells assessed as early apoptotic cells at 1 uM incubated for 72 hrs by APC-Annexin-V/7-AAD staining based flow cytometry (reference value: 1.16%); assay type: functional
[19] = Hepatotoxicity in male NSG mouse xenografted with human RPMI-8226 cells assessed as foci of bile ductular/oval cell proliferation at 3 mg/kg, ip administered 3 times a week for 26 days and measured 48 hrs post last dose by H and E staining based assay; assay type: toxicity, organism-based, Bile duct; details: in vivo, 672 h, time 28 day
[20] = molecular target: T1, Ras-related protein Rap-1A (Homo sapiens) (UniProt P62834); experiment: Inhibition of RAP-1A prenylation in human MIA PaCa-2 cells incubated for 48 hrs by Western blot analysis; assay type: cell-based; details: dose 10-1000 nM
T1 sequence (whole entry): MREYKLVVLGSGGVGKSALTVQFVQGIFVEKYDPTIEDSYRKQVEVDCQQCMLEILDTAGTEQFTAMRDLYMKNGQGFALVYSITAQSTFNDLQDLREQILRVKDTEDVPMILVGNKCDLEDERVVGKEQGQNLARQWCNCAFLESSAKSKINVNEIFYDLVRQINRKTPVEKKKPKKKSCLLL

[21] = Hepatotoxicity in male NSG mouse xenografted with human RPMI-8226 cells assessed as single-cell necrosis at 3 mg/kg, ip administered 3 times a week for 26 days and measured 48 hrs post last dose by H and E staining based assay; assay type: toxicity, organism-based; details: in vivo, 672 h, time 28 day

Chain of Cytochrome P450 2C9 (P11712 whole entry): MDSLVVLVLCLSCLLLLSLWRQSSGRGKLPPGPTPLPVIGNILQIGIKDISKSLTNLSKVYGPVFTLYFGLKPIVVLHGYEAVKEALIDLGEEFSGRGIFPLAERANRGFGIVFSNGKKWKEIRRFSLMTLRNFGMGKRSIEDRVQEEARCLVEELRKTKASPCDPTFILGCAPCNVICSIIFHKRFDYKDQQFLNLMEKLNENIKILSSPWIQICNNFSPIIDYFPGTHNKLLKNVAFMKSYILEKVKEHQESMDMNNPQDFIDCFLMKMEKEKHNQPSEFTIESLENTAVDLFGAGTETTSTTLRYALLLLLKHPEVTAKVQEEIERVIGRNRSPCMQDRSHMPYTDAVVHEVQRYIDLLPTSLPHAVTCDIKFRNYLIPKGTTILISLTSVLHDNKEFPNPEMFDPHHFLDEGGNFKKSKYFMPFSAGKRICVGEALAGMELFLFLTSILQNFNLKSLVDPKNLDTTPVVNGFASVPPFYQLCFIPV

Stability [5]: 99.3% | Stability [6]: 121% | EC50 [7]: 70 nM | IC50 [16]: > 40000 nM | inhibition [20]: Dose-Dependent Effect
Structure (SMILES): Cn1ncc2c(NC(P(=O)(O)O)P(=O)(O)O)nc(-c3cccc(C(=O)Nc4ccc(C(F)(F)F)cc4)c3)nc21
inhibition at 72 h, 10 µM [1]: 0% | Activity [2]: Toxic | Activity [3]: Non-Toxic | Activity [4]: Non-Toxic | Activity [8]: Non-Toxic | Activity [9]: 13.5% | Activity [10]: Non-Toxic | Activity [11]: 4.6% | Activity [12]: Non-Toxic | inhibition at 72 h, 10 µM [13]: ~20% | Activity [14]: Active | Activity [15]: Active | Activity [17]: 2.55% | Activity [18]: 20.7% | Activity [19]: Non-Toxic | Activity [21]: Non-Toxic
